Test results published in paper PMC6822764, “MitoToxy assay: A novel cell-based method for the assessment of metabolic toxicity in a multiwell plate format using a lactate FRET nanosensor, Laconic” (PLoS ONE, 2019).
Where “and” joins values, the source holds several entries; their conditions need not be identical. Equal values may be shown once. Read-outs that look alike come from different tables or passages of the source.

Key:
[1] = system: HepG2 cells; parameters: method as in PMID 22689143; conditions: cited from earlier work; for EC50: Seahorse technology, read-out: Concentration required to change the OCR and ECAR by 50%
[2] = system: mitochondrial membrane potential (MMP); conditions: treatment time 6 hours; ref Li et al., 2014 [50]; read-out: IC50, MMP; cited from earlier work
[3] = system: MitoTox Reporter cells (MDA-MB-231 expressing Laconic); assay: Pilot screening of 13 compounds with MitoTox Reporter cells, multiplate reader; type: cell-based; conditions: for ΔR% (lactate accumulation): average of 4 replicate wells, Fig 9 legend 30 minutes, 37°C; for Concentration at which toxicity / mitochondrial effects were detected in the pilot screening: tested at 1, 5 and 10 μM
Protocol: (§1) MitoTox reporter cell line was cultured in Leibowitz media (Gibco) supplemented with 10% of fetal bovine serum (FBS) at 37°C at atmospheric CO2 levels in a 100 mm petri dish. Once cells reached 100% confluency, they were trypsinized using 5% trypsin (Gibco) and washed in PBS. Viability was determine using trypan blue staining and 10,000 cells were seeded into each well of a 96 well plate. Experiments in 96 well format were performed once cells reached 100% confluency after 6 days, during the incubation media was not replaced. All the plates with signal-to-noise ration below 1.3 for monomeric Teal Fluorescent Protein (mTFP) and Venus channels were discarded. Background signal was determined with KRH buffer without cells. Experiments consisted in washing out the culture media using KRH HEPES buffer containing (mM) 136 NaCl, 3 KCl, 1.25 CaCl2, 1.25 MgCl2, 10 HEPES/Tris and pH 7.2 at 37°C with 300 mOsm. Then 200 μl of KRH HEPES buffer without any carbon sources was added to each well and the baseline was measured (RMIN), then 100 μl of buffer was replaced with mitochondrial toxicant/controls and signal was measured to obtain a stimulated response (RMAX). In experiments were pCMBS was used to block lactate exit, the inhibitor was added simultaneously with the mitochondrial toxicants. Data was collected in triplicated after 5, 10, 30, and 60 minutes of incubation. All the experiments in 96 well plates were performed in an EnVision® multiplate reader (PerkinElmer). Each well was excited at 430 nm and the intensity of mTFP and Venus fluorescence emission were recorded at 485 nm and 528 nm, using a set of filters.
(§2) Where R(mTFP/Venus) min corresponded to the minimal change of mTFP/Venus ratio during the single-cell experiments. Results in 96 well plates experiments were expressed by the ΔR%. This parameter was obtained from the difference between the RMAX and RMIN from the same well (before-after experiment) as follow: ΔR%=(R(mTFP/Venus)max−R(mTFP/Venus)min/R(mTFP/Venus)min)x100
Multiple comparisons versus control groups (Holm-Sidak method), Overall significance level P < 0,05.
The capability of the assay to identify previously described toxic drugs was explored through a pilot screening assay. We selected 13 compounds from a variety of therapeutic classes to perform a pilot screening assay using MitoTox Reporter cells and a standard multiplate reader. […] To perform the assays, we prepared master stocks for each compound in 0.2% DMSO. Assays were performed with compounds at final concentrations of 1, 5, and 10 μM and the response of MitoTox Reporter cells were measured at 5, 10, 30, and 60 minutes. […] As a negative control we selected a compound with no reported side-effects.

[4] = system: MDA-MB-231 cells stably expressing the FRET lactate indicator Laconic (MitoTox Reporter); assay: MitoToxy assay: toxicity-induced lactate accumulation in MitoTox Reporter cells, 96-well plate reader, with 50 μM pCMBS; type: cell-based
Protocol: as §1, §2

[5] = system: MitoTox reporter cells; conditions: 32 μM rotenone, 16 μM antimycin, 5 mM azide, 80 μM oligomycin, 10 μM myxothiazol; 5, 10, 30, 60 minutes; 37°C
Protocol: as §1, with “Experiments consisted in washing out the culture media using KRH HEPES buffer containing (mM) 136 NaCl, 3 KCl, 1.25 CaCl2, 1.25 MgCl2, 10 HEPES/Tris and pH 7.2 at 37°C with 300 mOsm.” left out, “In experiments were pCMBS was used to block lactate exit, the inhibitor was added simultaneously with the mitochondrial toxicants. Data was collected in triplicated after 5, 10, 30, and 60 minutes of incubation.” left out, “filters. […]” for “filters.”

[6] = system: primary culture of astrocytes from the mouse cortex expressing Laconic; assay: Single-cell lactate imaging (Laconic) in primary culture of cortical astrocytes; type: cell-based
Protocol: Animals used for primary cultures were mixed F1 male mice (C57BL/6J × CBA/J), kept in an animal room under SPF conditions at a room temperature of 20 ± 2°C, in a 12/12-h light/dark cycle and with free access to water and food. Mixed cortical cultures of neuronal and glia cells (1 –to 3-day-old neonates) was cultured in Neurobasal medium (Gibco) supplemented with 5 mM glucose and B27. Cells were seeded on petri dishes and superfused with KRH HEPES pH 7.4. The lactate imaging experiments with single-cell resolution were performed using cultured astrocytes at 11–14 days post-dissection. Real time experiments were performed with KRH HEPES bathing solution containing (in mM) 136 NaCl, 3 KCl, 1.25 CaCl2, 1.25 MgCl2, 10 HEPES/Tris and pH 7.2 at 36°C with 300 mOsm, without carbon sources for mitochondrial toxicant experiments and 2 mM glucose and 1 mM lactate for Warburg index determination. Experiments were performed in upright Olympus FV1000 confocal microscope equipped with a 20X water-immersion objective (numerical aperture, 1.0) and a 440 nm solid-state laser.
To plot the data, we used a ratio between mTFP and Venus channels. This ratio is proportional to lactate levels, since its binding to the sensor produced a decrease in FRET efficiency. This ratio was expressed in two formulas described below: NormalizedΔR=R(mTFP/Venus)/R(mTFP/Venus)min
With the aim of testing if this observation occurs in general and if azide induced-lactate accumulation can be reproduced using another mitochondrial toxicant with a different molecular target, we performed single-cell experiments exposing primary culture of astrocytes from the mouse cortex expressing Laconic (Fig 1A) to different mitochondria inhibitors that block the ETC at different levels (Fig 1C). To take advantage of the maximal dynamic range of the lactate FRET sensor the baseline measurements were performed using buffer without carbon sources to force start the experiments with lactate levels below 100 μM.
Each data point is from an average of ten cells from three independent experiments.

[7] = system: HepG2 cells; parameters: method as in Marroquin et al., 2007 [35]; conditions: treatment time 24 hours; approximated IC50 directly from plotted data in the original paper; ref Marroquin et al., 2007 [35]; cited from earlier work
[8] = system: HepG2 cells; parameters: method as in Nadanaciva et al., 2012 [55]; conditions: treatment time 0.03 hours; ref Nadanaciva et al., 2012 [55]; cited from earlier work
[9] = system: extracellular acidification; parameters: method as in Hynes et al., 2013 [72]; conditions: treatment time 0.13 hours; ref Hynes et al., 2013 [72]; cited from earlier work
[10] = system: reactive oxygen species (ROS); parameters: method as in Li et al., 2014 [50]; conditions: treatment time 6 hours; ref Li et al., 2014 [50]; cited from earlier work
[11] = system: HepG2 cells; parameters: method as in Nadanaciva et al., 2012 [55]; conditions: treatment time 0.03 hours; ref Nadanaciva et al., 2012 [55]; cited from earlier work; remark: listed apart in the source
[12] = system: cell viability; parameters: method as in Li et al., 2014 [50]; conditions: treatment time 6 hours; ref Li et al., 2014 [50]; cited from earlier work
[13] = system: oxygen consumption; parameters: method as in Hynes et al., 2013 [72]; conditions: treatment time 0.13 hours; ref Hynes et al., 2013 [72]; cited from earlier work
[14] = system: glutathione (GSH); parameters: method as in Li et al., 2014 [50]; conditions: treatment time 6 hours; ref Li et al., 2014 [50]; cited from earlier work
[15] = system: clonal MDA-MB-231 cells expressing Laconic; assay: Single-cell lactate imaging of MitoTox Reporter cells; type: cell-based; conditions: 32 μM rotenone, 16 μM antimycin, 80 μM oligomycin, 10 μM myxothiazol
From the text: To generate a cell system with a high signal-to-noise ratio suitable for standard multiplate readers, we developed a clonal cell line with high levels and homogeneous Laconic expression. To do so, we produced a lentivirus particle to infect and transduce Laconic in MDA-MB-231 cells. From pooled cells with diverse levels of Laconic expression we selected high expression clones through FACS. […] We termed this cell line “MitoTox Reporter”. Exposure of these cells to classical mitochondrial poisons produced a robust increase in the fluorescent signal, indicating acute toxicity-induced lactate accumulation. […] With this evidence in hand, cells were tested in a multi-well plate reader.
Fig 3 Characterization of “MitoTox reporter” cell line. A) Confocal images from FACS selected clonal MDA-MB-231 cells expressing Laconic. Size bars for 20x and 60x represent 100 μm and 10 μm, respectively. Cytosolic lactate accumulation induced by treatment with: B) 32 μM rotenone, C) 16 μM of antimycin, D) 80 μM of oligomycin, and 10 μM myxothiazol. Each trace is the average of ten cells from one representative experiment.

[16] = system: ATP; conditions: read-out: IC50, ATP depletion; cited from earlier work
[17] = 32 μM rotenone, 16 μM antimycin, 5 mM azide, 80 μM oligomycin, buffer without carbon sources
[18] = dose-response, treatment time 0.5 hours (Fig 8 legend: 10 minutes), 37°C, read-out: IC50 (toxicity-induced lactate accumulation, MitoToxy)

CN(CCOc1ccc(CC2SC(=O)NC2=O)cc1)c1ccccn1 (stereo not drawn) [rosiglitazone]
Effect on OCR and ECAR ([1]; between 0.13 and 100 μM): no effects were detected | IC50 [2]: > 1000 µM | ΔR% (lactate accumulation) ([3]; 10 μM): over 14% | Concentration at which toxicity / mitochondrial effects were detected in the pilot screening [3]: 5 µM

[N-]=[N+]=[N-].[Na+] [azide]
IC50 ([4]; read-out: IC50 (toxicity-induced lactate accumulation, MitoToxy)): 1440 µM | Lactate accumulation (ΔR%) in 96-well plates without pCMBS [5]: declined after 5 minutes | Cytosolic lactate accumulation in astrocytes [6]: induced an acute cytosolic lactate accumulation

C=C(C)[C@H]1Cc2c(ccc3c2O[C@@H]2COc4cc(OC)c(OC)cc4[C@@H]2C3=O)O1 [rotenone]
IC50 [7]: 0.05 µM | IC50 [8]: 0.263 µM | IC50 [9]: 0.002 µM | IC50 [10]: 10.5 µM | IC50 [11]: 0.371 µM | IC50 ([4]; Homo sapiens, MDA-MB-231, read-out: IC50 (toxicity-induced lactate accumulation)): 0.0027 ± 0.00141 µM | IC50 ([4]; Homo sapiens, MDA-MB-231, read-out: IC50 (toxicity-induced lactate accumulation, MitoToxy)): 0.0025 µM | IC50 [12]: > 1000 µM | IC50 [2]: 20.3 µM | IC50 [13]: 0.02 µM | IC50 [14]: 518 µM | Intracellular lactate levels in MitoTox Reporter cells (single-cell) [15]: acute, fast, and robust increase of intracellular lactate levels | Cytosolic lactate accumulation in astrocytes [6, 17]: induced an acute cytosolic lactate accumulation

CC[C@H]1/C=C/C=C/C[C@@H](C)[C@H](O)[C@@](C)(O)C(=O)[C@@H](C)[C@H](O)[C@@H](C)C(=O)[C@@H](C)[C@H](O)[C@@H](C)/C=C/C(=O)O[C@@H]2[C@H](C)[C@H](CC1)O[C@]1(CC[C@H](C)[C@H](C[C@@H](C)O)O1)[C@H]2C [oligomycin]
IC50 [7]: 0.005 µM | IC50 [8]: 0.92 µM | IC50 [9]: 0.077 µM | IC50 [10]: > 1000 µM | IC50 [11]: 1.1 µM | IC50 ([4]; Homo sapiens, MDA-MB-231, dose-response, treatment time 0.5 hours (Fig 8 legend: 10 minutes), 37°C, read-out: IC50 (toxicity-induced lactate accumulation, MitoToxy)): 0.038 µM | IC50 [12]: 182 µM | IC50 [2]: 15.6 µM | IC50 [13]: 0.038 µM | IC50 [14]: 161 µM | Intracellular lactate levels in MitoTox Reporter cells (single-cell) [15]: acute, fast, and robust increase of intracellular lactate levels | Cytosolic lactate accumulation in astrocytes [6, 17]: induced an acute cytosolic lactate accumulation

antimycin
IC50 [7]: 0.006 µM | IC50 [8]: 0.004 µM | IC50 [9]: 0.074 µM | IC50 [10]: 17.7 µM | IC50 [11]: 0.1 µM | IC50 [4, 18]: 0.00024 µM | IC50 [12]: 291 µM | IC50 [2]: 2.1 µM | IC50 [13]: 0.039 µM | IC50 [14]: 228 µM | Intracellular lactate levels in MitoTox Reporter cells (single-cell) [15]: acute, fast, and robust increase of intracellular lactate levels | Cytosolic lactate accumulation in astrocytes [6, 17]: induced an acute cytosolic lactate accumulation

CC1(COc2ccc(CC3SC(=O)NC3=O)cc2)CCCCC1 (stereo not drawn) [ciglitazone]
EC50 [1]: > 100 µM | IC50 [2]: 136 µM | ΔR% (lactate accumulation) ([3]; 10 μM): over 14% | Concentration at which toxicity / mitochondrial effects were detected in the pilot screening [3]: 5 µM

Cc1c(C)c2c(c(C)c1O)CCC(C)(COc1ccc(CC3SC(=O)NC3=O)cc1)O2 (stereo not drawn) [troglitazone]
EC50 [1]: > 100 µM | IC50 [16]: 28 µM and 31.4 µM | IC50 [2]: 176 µM | ΔR% (lactate accumulation) ([3]; 5 μM): The effect was also detected | ΔR% (lactate accumulation) ([3]; 10 μM): over 14% | Concentration at which toxicity / mitochondrial effects were detected in the pilot screening [3]: 5 µM

CO/C(=C/C(N)=O)[C@H](C)[C@H](/C=C/c1csc(-c2csc([C@@H](C)/C=C/C=C/C(C)C)n2)n1)OC [myxothiazol]
IC50 [10]: 3.3 µM | IC50 [4, 18]: 1.2 µM | IC50 [12]: 183 µM | IC50 [2]: 1.2 µM | IC50 [14]: > 1000 µM | Intracellular lactate levels in MitoTox Reporter cells (single-cell) [15]: acute, fast, and robust increase of intracellular lactate levels
